test system: human platelet suspension (platelet aggregation caused by TxA2 agonist U46619); test: Platelet aggregation reaction test, U46619-induced; type: cell-based; settings: not given
Description: (§1) Blood samples were collected from healthy donors, and acid-citrate-dextrose (ACD) solution was used as an anticoagulant. The blood samples were centrifuged to obtain platelets, and residual plasma was removed by washing to prepare platelet suspension.
(§2) In the experimental method, a platelet aggregometer (Chrono-Log Co., Havertown, PA, USA) was used for tests. The compound to be tested was added to the platelet suspension and reacted for 3 minutes at 37° C. with stirring (1200 rpm). Then, platelet stimulator U46619 or collagen was added to initiate platelet aggregation, and the test time was 5 minutes. The principle of the platelet aggregation test was: when platelets were stimulated to induce aggregation reaction, the light transmission of the platelet suspension would increase; by calculating changes in light transmission of the platelet suspension before and after being stimulated, the percentage of platelet aggregation could be obtained.

IC50 | Compound
> 100 µM | CCOC(=O)COc1cc(OC)ccc1C(=O)C=Cc1ccc(OC)cc1 [Compound 48]
0.5 µM | O=C(O)CCCCCOc1ccccc1C(=O)CCc1ccccc1 [Compound 49]
0.57 µM | O=C(O)CCCCCOc1ccccc1C(=O)CCc1cccc(F)c1 [Compound 50]
0.57 µM | O=C(O)CCCCCOc1ccccc1C(=O)C=Cc1cccs1 [Compound 51]
0.5 µM | O=C(O)CCCCCOc1ccccc1C(=O)C=Cc1ccco1 [Compound 52]
50.4 µM | O=C(O)CCCCCOc1ccccc1C(=O)C=Cc1ccccn1 [Compound 53]
5.45 µM | O=C(O)CCCCCOc1ccccc1C(=O)C=Cc1cccnc1 [Compound 54]
5.37 µM | CC(C)=CCOc1ccc(C(=O)C=Cc2cccs2)c(OCCCCCC(=O)O)c1 [Compound 55]
72.2 µM | O=C(O)COc1ccccc1C(=O)C=Cc1ccco1 [Compound 56]

The next lines start with the compound.

Compound | IC50
O=C(O)COc1cc(F)ccc1C(=O)/C=C/c1ccccc1 [Compound 29] | 1.56 µM
O=C(O)COc1cc(F)ccc1C(=O)C=Cc1ccccc1 [Compound 31] | 4.4 µM
CC(C)=CCOc1ccc(C=CC(=O)c2ccc(OCC=C(C)C)cc2OCCCCCC(=O)O)cc1 [Compound 32] | 5.85 µM
O=C(O)COc1cc(F)ccc1C(=O)C=Cc1ccc(F)cc1 [Compound 33] | 2.15 µM
O=C(O)CCCOc1ccccc1C(=O)C=Cc1ccccc1 [Compound 34] | 9.5 µM
O=C(O)COc1ccccc1C(=O)C=Cc1ccccc1 [Compound 35] | 6.58 µM
O=C(O)CCCCCOc1ccccc1C(=O)C=Cc1ccccc1 [Compound 36] | 0.19 µM
CC(C)=CCOc1ccc(C=CC(=O)c2ccc(OCC=C(C)C)cc2OCCCCC(=O)O)cc1 [Compound 37] | 0.23 µM
CCOC(=O)CCCCCOc1ccccc1C(=O)C=Cc1ccccc1F [Compound 38] | 0.03 µM
CCOC(=O)CCCCCOc1ccccc1C(=O)C=Cc1cccc(F)c1 [Compound 39] | 0.05 µM
CCOC(=O)COc1cc(O)ccc1C(=O)C=Cc1cccc(O)c1 [Compound 40] | 25.9 µM
CCOC(=O)COc1cc(O)ccc1C(=O)C=Cc1ccc(O)c(O)c1 [Compound 41] | 34.9 µM
CCOC(=O)COc1ccccc1C(=O)C=Cc1ccc(O)cc1 [Compound 42] | 38.7 µM
CCOC(=O)COc1cc(O)ccc1C(=O)C=Cc1ccc(F)cc1 [Compound 43] | 55.6 µM
CCOC(=O)COc1cc(O)ccc1C(=O)C=Cc1ccc(Cl)cc1 [Compound 44] | > 100 µM
CCOC(=O)COc1cc(O)ccc1C(=O)C=Cc1ccc([N+](=O)[O-])cc1 [Compound 45] | > 20 µM
CCOC(=O)COc1ccccc1C(=O)C=Cc1ccc(N)cc1 [Compound 46] | 64 µM
CCOC(=O)COc1ccccc1C(=O)C=Cc1ccc(O)cc1 [Compound 47] | 35.2 µM

test system: human platelet suspension (platelet aggregation caused by collagen); test: Platelet aggregation reaction test, collagen-induced; type: cell-based; settings: read-out: Collagen IC 50
Description: as §1, §2

IC50 | Compound
> 100 µM | CCOC(=O)COc1cc(OC)ccc1C(=O)C=Cc1ccc(OC)cc1 [Compound 48]
4.85 µM | O=C(O)CCCCCOc1ccccc1C(=O)CCc1ccccc1 [Compound 49]
0.33 µM | O=C(O)CCCCCOc1ccccc1C(=O)CCc1cccc(F)c1 [Compound 50]
0.62 µM | O=C(O)CCCCCOc1ccccc1C(=O)C=Cc1cccs1 [Compound 51]
0.56 µM | O=C(O)CCCCCOc1ccccc1C(=O)C=Cc1ccco1 [Compound 52]
44.4 µM | O=C(O)CCCCCOc1ccccc1C(=O)C=Cc1ccccn1 [Compound 53]
22.1 µM | O=C(O)CCCCCOc1ccccc1C(=O)C=Cc1cccnc1 [Compound 54]
4.4 µM | CC(C)=CCOc1ccc(C(=O)C=Cc2cccs2)c(OCCCCCC(=O)O)c1 [Compound 55]
38.3 µM | O=C(O)COc1ccccc1C(=O)C=Cc1ccco1 [Compound 56]

Continued, compound first:

Compound | IC50
O=C(O)COc1cc(F)ccc1C(=O)/C=C/c1ccccc1 [Compound 29] | 7.88 µM
O=C(O)COc1cc(F)ccc1C(=O)C=Cc1ccccc1 [Compound 31] | 7.1 µM
CC(C)=CCOc1ccc(C=CC(=O)c2ccc(OCC=C(C)C)cc2OCCCCCC(=O)O)cc1 [Compound 32] | 12.8 µM
O=C(O)COc1cc(F)ccc1C(=O)C=Cc1ccc(F)cc1 [Compound 33] | 12.2 µM
O=C(O)CCCOc1ccccc1C(=O)C=Cc1ccccc1 [Compound 34] | 6.4 µM
O=C(O)COc1ccccc1C(=O)C=Cc1ccccc1 [Compound 35] | 7.91 µM
O=C(O)CCCCCOc1ccccc1C(=O)C=Cc1ccccc1 [Compound 36] | 0.13 µM
CC(C)=CCOc1ccc(C=CC(=O)c2ccc(OCC=C(C)C)cc2OCCCCC(=O)O)cc1 [Compound 37] | 1.58 µM
CCOC(=O)CCCCCOc1ccccc1C(=O)C=Cc1ccccc1F [Compound 38] | 0.07 µM
CCOC(=O)CCCCCOc1ccccc1C(=O)C=Cc1cccc(F)c1 [Compound 39] | 0.07 µM
CCOC(=O)COc1cc(O)ccc1C(=O)C=Cc1cccc(O)c1 [Compound 40] | 10.3 µM
CCOC(=O)COc1cc(O)ccc1C(=O)C=Cc1ccc(O)c(O)c1 [Compound 41] | 15.2 µM
CCOC(=O)COc1ccccc1C(=O)C=Cc1ccc(O)cc1 [Compound 42] | 1.59 µM
CCOC(=O)COc1cc(O)ccc1C(=O)C=Cc1ccc(F)cc1 [Compound 43] | 2.26 µM
CCOC(=O)COc1cc(O)ccc1C(=O)C=Cc1ccc(Cl)cc1 [Compound 44] | 8.92 µM
CCOC(=O)COc1cc(O)ccc1C(=O)C=Cc1ccc([N+](=O)[O-])cc1 [Compound 45] | > 20 µM
CCOC(=O)COc1ccccc1C(=O)C=Cc1ccc(N)cc1 [Compound 46] | 5.08 µM
CCOC(=O)COc1ccccc1C(=O)C=Cc1ccc(O)cc1 [Compound 47] | 16.4 µM

Reference: patent publication US20250387375A1, “SOFALCONE DERIVATIVES AND MEDICAL USE THEREOF” (KAOHSIUNG MEDICAL UNIVERSITY, priority 2024, published 2025)
